Among the data in patent US11406614B2, “Composition comprising EPA and DHA for an enhanced efficacy of anticancer agents” (Fresenius Kabi Deutschland GmbH, priority 2016, dated 2022) are Suboptimal dose values, retold here.

For this assay, the system named is human colon adenocarcinoma cell line LS174T. Put plainly: Subcutaneous LS174T xenograft model, tumor growth inhibition. As to conditions: mouse, in vivo. More on the design: species or system BALB/c nude mice. As to the method:
Example 2 was repeated with the anticancer agent fluorouracil (5-FU) and utilizing a different xen-ograft model involving the human colon adenocarcinoma cell line LS174T.
The suboptimal dose of 5-FU was determined with 75 mg/kg. The anticancer agent was intraperitoneally administered at the suboptimal dose once a week (days 11, 18 and 25 after inoculation). The emulsions were administered intravenously five times a week (Mo-Fr) at a dose of 2 ml/kg.
The results were statistically analyzed.

`O=c1[nH]cc(F)c(=O)[nH]1` [Composition 5-FU, fluorouracil]: the Suboptimal dose is given as 75 mg/kg.
